# Laboratory results as given in patent publication US20240174647A1 (NEURON23, INC., priority 2022, published 2024).
# Molecular target: wt human LRRK2, catalytic site (Homo sapiens (Human), UniProt Q5S007)
# Experiment: TR-FRET LanthaScreen Tb Kinase Activity Assay (LRRK2 kinase inhibition)
# Type: biochemical
# Settings: 2 nM wt human LRRK2, 400 nM fluorescein-ERM (LRRKtide) peptide, 38 μM ATP, 120 minutes at room temperature
# Experimental: The compounds in Table 1 were tested for their inhibitory effect on LRRK2 kinase according to the following procedures.
# The protocol for basic TR-FRET LanthaScreen Tb Kinase Activity Assay inhibitor studies were as follows. LanthaScreen Kinase Activity Assays (ThermoFisher/USA) to evaluate inhibitors were performed by addition of 100 nL of test compound in corresponding DMSO dilutions/5 μL of kinase/fluorescein-ERM(LRRKtide) peptide mixture, 5 μL of ATP into 384 well small volume plates. After incubation for 120 minutes at room temperature, the detection reagents containing Tb-anti-pLRRKtide antibody were added to monitor phosphrylation level of peptide. Then, after 60 min minutes incubation at room temperature plates were read in Envision. Data analysis of emission ratios was according to LanthaScreen Tb Kinase Activity Assay protocol.
# Kinase and assay components were adjusted to final concentrations according to the kit protocol. For LRRK2: 2 nM wt human LRRK2, catalytic site, catalytic site (ThermoFisher/USA), 400 nM peptide, 38 μM ATP in 1× Kinase Buffer A.
# Basic protocol for TR-FRET LanthaScreen Tb Kinase Activity Assay inhibitor studies involved two steps: • Enzymatic step: Addition of 100 nL of test compound in corresponding DMSO dilutions, 5 μL of kinase/substrate mixture, 5 μL of ATP into 384 well small volume plates. Incubation for 120 minutes at room temperature. • Detection step: Addition of 10 μL EDTA & antibody, read plate after 60 minutes. Data analysis of emission ratios according to KinEASE assay protocol.
# Kinase and assay components were adjusted to final concentrations according to the kit protocol.
# In the table below, activity is provided as follows: +++=IC50 less than 50 nM; ++=IC50 between 50 nM and 200 nM; +=IC50>=200 nM
# wt human LRRK2, catalytic site, sequence (Q5S007 1879-2138): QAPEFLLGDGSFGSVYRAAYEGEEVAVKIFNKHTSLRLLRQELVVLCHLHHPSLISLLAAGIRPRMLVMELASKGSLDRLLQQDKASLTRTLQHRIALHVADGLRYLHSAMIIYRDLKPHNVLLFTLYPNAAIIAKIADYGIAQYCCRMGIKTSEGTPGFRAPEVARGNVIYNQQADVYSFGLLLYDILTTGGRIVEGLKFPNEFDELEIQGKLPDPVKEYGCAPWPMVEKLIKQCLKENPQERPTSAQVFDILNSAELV
row,SMILES,IC50 [nM]
1,"CNc1nc(Nc2ccc3cn[nH]c3c2OC)ncc1C(F)(F)F [Example 4, N2-(7-methoxy-1H-indazol-6-yl)-N4-methyl-5-(trifluoromethyl)pyrimidine-2,4-diamine]",50 to 200
2,"CNc1nc(Nc2cccc3c2cnn3CC(C)(C)O)nc2[nH]cnc12 [Example 184, 2-methyl-1-[4-[[6-(methylamino)-9H-purin-2-yl]amino]indazol-1-yl]propan-2-ol]",< 50
3,"CNc1nc(Nc2cccc3c2CC(=O)N3)ncc1C(F)(F)F [Example 127, 4-[[4-(methylamino)-5-(trifluoromethyl)pyrimidin-2-yl]amino]indolin-2-one]",< 50
4,"CNc1nc(Nc2ccc(C3=CCN(C)CC3)c3c2cnn3CC(N)=O)ncc1C(F)(F)F [Example 100, 2-(7-(1-methyl-1,2,3,6-tetrahydropyridin-4-yl)-4-((4-(methylamino)-5-(trifluoromethyl)pyrimidin-2-yl)amino)-1H-indazol-1-yl)acetamide]",< 50
5,"CNc1nc(Nc2cnn3cc(C#N)ccc23)ncc1C(F)(F)F [Example 119, 3-((4-(methylamino)-5-(trifluoromethyl)pyrimidin-2-yl)amino)pyrazolo[1,5-a]pyridine-6-carbonitrile]",< 50
6,"CNc1nc(Nc2ccc3c(cnn3C)c2)ncc1C(F)(F)F [Example 73, N4-methyl-N2-(1-methyl-1H-indazol-5-yl)-5-(trifluoromethyl)pyrimidine-2,4-diamine]",< 50
7,"CNc1nc(Nc2c(C)n(C)c3ccccc23)ncc1C(F)(F)F [Example 64, N2-(1,2-dimethyl-1H-indol-3-yl)-N4-methyl-5-(trifluoromethyl)pyrimidine-2,4-diamine]",50 to 200
8,"CNc1nc(Nc2ccc(C3CCN(C)CC3)c3c2cnn3C)ncc1C(F)(F)F [Example 82, N4-methyl-N2-(1-methyl-7-(1-methylpiperidin-4-yl)-1H-indazol-4-yl)-5-(trifluoromethyl)pyrimidine-2,4-diamine]",< 50
9,"N#CCn1ncc2c(Nc3ncc(C(F)(F)F)c(NC4CCCC4)n3)cccc21 [Example 95, 2-(4-((4-(cyclopentylamino)-5-(trifluoromethyl)pyrimidin-2-yl)amino)-1H-indazol-1-yl)acetonitrile]",< 50
10,"CNc1nc(Nc2c(F)ccc3c2cnn3C)ncc1C(F)(F)F [Example 38, N2-(5-fluoro-1-methyl-1H-indazol-4-yl)-N4-methyl-5-(trifluoromethyl) pyrimidine-2,4-diamine]",50 to 200
11,"CNc1nc(Nc2ccc(C3=CCN(C)CC3)c3c2cnn3C)ncc1C(F)(F)F [Example 81, N4-methyl-N2-(1-methyl-7-(1-methyl-1,2,3,6-tetrahydropyridin-4-yl)-1H-indazol-4-yl)-5-(trifluoromethyl)pyrimidine-2,4-diamine]",< 50
12,"CCNc1nc(Nc2cccc3c2cnn3C(C)(C)C#N)nc2[nH]cc(Cl)c12 [Example 156, 2-(4-((5-chloro-4-(ethylamino)-7H-pyrrolo[2,3-d]pyrimidin-2-yl)amino)-1H-indazol-1-yl)-2-methylpropanenitrile]",< 50
13,"CNc1nc(Nc2cc(C)cc3[nH]ncc23)ncc1C(F)(F)F [Example 24, N4-methyl-N2-(6-methyl-1H-indazol-4-yl)-5-(trifluoromethyl)pyrimidine-2,4-diamine]",< 50
14,"CNc1nc(Nc2ccc(CCC(=O)N3CCOCC3)c3[nH]ncc23)ncc1C(F)(F)F [Example 57, 3-(4-((4-(methylamino)-5-(trifluoromethyl)pyrimidin-2-yl)amino)-1H-indazol-7-yl)-1-morpholinopropan-1-one]",< 50
15,"CNc1nc(Nc2ccc3cn(C)nc3c2OC)ncc1C(F)(F)F [Example 20, N2-(7-methoxy-2-methyl-2H-indazol-6-yl)-N4-methyl-5-(trifluoromethyl)pyrimidine-2,4-diamine]",< 50
16,CNc1nc(Nc2cccc3c2cnn3S(C)(=O)=O)ncc1C(F)(F)F [Example 101],< 50
17,"CC(C)Nc1nc(Nc2ccc3c4c2cnn4CCO3)ncc1C(F)(F)F [Example 180, N^4-isopropyl-N^2-(9-oxa-1,2-diazatricyclo[6.3.1.04,12]dodeca-2,4,6,8(12)-tetraen-5-yl)-5-(trifluoromethyl)pyrimidine-2,4-diamine]",< 50

row,SMILES,IC50 [nM]
1,"CNc1nc(Nc2cn(CC#N)c3cnccc23)ncc1C(F)(F)F [Example 131, 2-[3-[[4-(methylamino)-5-(trifluoromethyl)pyrimidin-2-yl]amino]pyrrolo[2,3-c]pyridin-1-yl]acetonitrile]",< 50
2,"CS(=O)(=O)CCNc1nc(Nc2cccc3c2cnn3S(=O)(=O)C2CC2)ncc1C(F)(F)F [Example 138, N^2-(1-(cyclopropylsulfonyl)-1H-indazol-4-yl)-N^4-(2-(methylsulfonyl)ethyl)-5-(trifluoromethyl)pyrimidine-2,4-diamine]",< 50
3,"CC(C)n1ncc2c(Nc3ncc(C(F)(F)F)c(NC4CC4)n3)cccc21 [Example 169, N4-cyclopropyl-N2-(1-isopropyl-1H-indazol-4-yl)-5-(trifluoromethyl)pyrimidine-2,4-diamine]",< 50
4,CNc1nc(Nc2cc3[nH]ncc3cc2Cl)ncc1C(F)(F)F [Example 116],< 50
5,"CC(C)S(=O)(=O)n1ncc2c(Nc3ncc(C(F)(F)F)c(NC4CC4)n3)cccc21 [Example 135, N^4-cyclopropyl-N^2-(1-isopropylsulfonylindazol-4-yl)-5-(trifluoromethyl) pyrimidine-2,4-diamine]",< 50
6,"CC(C)(CS(C)(=O)=O)n1ncc2c(Nc3ncc(C(F)(F)F)c(NC4CC4)n3)cccc21 [Example 195, N^4-cyclopropyl-N^2-(1-(2-methyl-1-(methylsulfonyl)propan-2-yl)-1H-indazol-4-yl)-5-(trifluoromethyl)pyrimidine-2,4-diamine]",< 50
7,"COCCS(=O)(=O)n1ncc2c(Nc3ncc(C(F)(F)F)c(NC4CC4)n3)cccc21 [Example 136, N^4-cyclopropyl-N^2-(1-((2-methoxyethyl)sulfonyl)-1H-indazol-4-yl)-5-(trifluoromethyl)pyrimidine-2,4-diamine]",< 50
8,"CNc1nc(Nc2cccc3[nH]nc(C)c23)ncc1C(F)(F)F [Example 48, N4-methyl-N2-(3-methyl-1H-indazol-4-yl)-5-(trifluoromethyl)pyrimidine-2,4-diamine]",50 to 200
9,"O=S(=O)(C1CC1)n1ncc2c(Nc3ncc(C(F)(F)F)c(NC4CC4)n3)ccc(F)c21 [Example 153, N^4-cyclopropyl-N^2-(1-(cyclopropylsulfonyl)-7-fluoro-1H-indazol-4-yl)-5-(trifluoromethyl) pyrimidine-2,4-diamine]",< 50
10,"CNc1nc(Nc2cccc3nncn23)ncc1C(F)(F)F [Example 124, N^4-methyl-N^2-([1,2,4]triazolo[4,3-a]pyridin-5-yl)-5-(trifluoromethyl) pyrimidine-2,4-diamine]",≥ 200
11,"CNc1nc(Nc2ccc3c(Br)nn(C)c3c2)ncc1C(F)(F)F [Example 10, N^2-(3-bromo-1-methyl-1H-indazol-6-yl)-N^4-methyl-5-(trifluoromethyl) pyrimidine-2,4-diamine]",< 50
12,"CNc1nc(Nc2ccnc3ccnn23)ncc1C(F)(F)F [Example 115, N^4-methyl-N^2-pyrazolo[1,5-a]pyrimidin-7-yl-5-(trifluoromethyl)pyrimidine-2,4-diamine]",≥ 200
13,"CNc1nc(Nc2ccc(C3CCOCC3)c3c2cnn3C)ncc1C(F)(F)F [Example 88, N4-methyl-N2-(1-methyl-7-(tetrahydro-2H-pyran-4-yl)-1H-indazol-4-yl)-5-(trifluoromethyl)pyrimidine-2,4-diamine]",< 50
14,"O=S(=O)(C1CC1)n1ncc2c(Nc3ncc(C(F)(F)F)c(NC4CC4)n3)ccnc21 [Example 159, N^4-cyclopropyl-N^2-(1-(cyclopropylsulfonyl)-1H-pyrazolo[3,4-b]pyridin-4-yl)-5-(trifluoromethyl)pyrimidine-2,4-diamine]",< 50
15,"FC(F)(F)c1cnc(Nc2ccc3c4c2cnn4CCCO3)nc1NC1CC1 [Example 160, N^4-cyclopropyl-N^2-(9-oxa-1,2-diazatricyclo[6.4.1.04,13]trideca-2,4,6,8(13)-tetraen-5-yl)-5-(trifluoromethyl)pyrimidine-2,4-diamine]",< 50
16,"CC(C)(C#N)n1ncc2c(Nc3ncc(C(F)(F)F)c(NCC(F)(F)F)n3)cccc21 [Example 112, 2-methyl-2-(4-((4-((2,2,2-trifluoroethyl)amino)-5-(trifluoromethyl)pyrimidin-2-yl)amino)-1H-indazol-1-yl)propanenitrile]",< 50
17,"CNc1nc(Nc2cc(CC#N)cc3c2cnn3C)ncc1C(F)(F)F [Example 51, 2-(1-methyl-4-((4-(methylamino)-5-(trifluoromethyl)pyrimidin-2-yl)amino)-1H-indazol-6-yl)acetonitrile]",< 50
